How the values were obtained:
[1] = test system: Pigweed (redroot) (Amaranthus retroflexus); conditions: rate 123 (unit not given); visual score after 2 weeks, 0 = no injury, 100 = complete kill
Procedure: (§1) Seeds of the desired test plant species were planted in Grace-Sierra MetroMix® 306 planting mixture, which typically has a pH of 6.0 to 6.8 and an organic matter content of about 30 percent, in plastic pots with a surface area of 64 square centimeters. […] The plants were grown for 7-21 days in a greenhouse with an approximate 15 hr photoperiod which was maintained at about 23-29° C. during the day and 22-28° C. during the night. Nutrients and water were added on a regular basis and supplemental lighting was provided with overhead metal halide 1000-Watt lamps as necessary. The plants were employed for testing when they reached the first or second true leaf stage.
(§2) A weighed amount, determined by the highest rate to be tested, of each test compound was placed in a 20 mL glass vial and was dissolved in 4 mL of a 97:3 v/v (volume/volume) mixture of acetone and dimethyl sulfoxide (DMSO) to obtain concentrated stock solutions. […]
(§3) The treated plants and control plants were placed in a greenhouse as described above and watered by sub-irrigation to prevent wash-off of the test compounds. After 2 weeks the condition of the test plants as compared with that of the untreated plants was determined visually and scored on a scale of 0 to 100 percent where 0 corresponds to no injury and 100 corresponds to complete kill.

[2] = test system: Wheat (var.Merica) (Triticum aestivum); conditions: rate 123 (unit not given); crop selectivity to wheat; visual score after 2 weeks, 0 = no injury, 100 = complete kill
Procedure: as §1, §2, §3

[3] = test system: Giant Foxtail (Setaria faberi); assay: Preemergence herbicidal activity; assay type: in vivo; conditions: rate 560 ppm; visual score after 3 weeks, 0 = no injury, 100 = complete kill or no germination
Procedure: (§4) The soil matrix was contained in plastic pots with a surface area of 113 square centimeters. […] The stock solutions obtained were diluted with a 99.9:0.1 mixture of water and Tween® […] surfactant to obtain application solutions of known concentration. […] A 2.5 mL aliquot of each solution of known concentration was sprayed evenly onto the soil surface (113 sq. cm) of each seeded pot using a Cornwall 5.0 mL glass syringe fitted with a TeeJet TN-3 hollow cone nozzle to obtain thorough coverage of the soil in each pot. […] The water was added by top-irrigation.

[4] = test system: Lambsquarter (Chenopodium album); assay: Preemergence herbicidal activity; assay type: in vivo; conditions: rate 560 ppm; visual score after 3 weeks, 0 = no injury, 100 = complete kill or no germination
Procedure: as §4

[5] = test system: Ivyleaf Morningglory (Ipomoea hederacea); assay: Preemergence herbicidal activity; assay type: in vivo; conditions: rate 560 ppm; visual score after 3 weeks, 0 = no injury, 100 = complete kill or no germination
Procedure: as §4

[6] = test system: Crabgrass (large) (Digitaria sanguinalis); assay: Preemergence herbicidal activity; assay type: in vivo; conditions: rate 560 ppm; visual score after 3 weeks, 0 = no injury, 100 = complete kill or no germination
Procedure: as §4

[7] = test system: Barnyardgrass (Echinochloa crus-galli); assay: Postemergence herbicidal activity; assay type: in vivo; conditions: visual score after 2 weeks, 0 = no injury, 100 = complete kill
Procedure: as §1
(§5) A weighed amount, determined by the highest rate to be tested, of each test compound was placed in a 20 mL glass vial and was dissolved in 4 mL of a 97:3 v/v (volume/volume) mixture of acetone and dimethyl sulfoxide (DMSO) to obtain concentrated stock solutions. […] The concentrated stock solutions obtained were diluted with an aqueous mixture containing acetone, water, isopropyl alcohol, DMSO, Atplus 411F crop oil concentrate, and Triton X-155 surfactant in a 48.5:39:10:1.5:1.0:0.02 v/v ratio to obtain spray solutions of known concentration. The solutions containing the highest concentration to be tested were prepared by diluting 2 mL aliquots of the stock solution with 13 mL of the mixture and lower concentrations were prepared by serial dilution of the stock solution. Approximately 1.5 mL aliquots of each solution of known concentration were sprayed evenly onto each of the test plant pots using a DeVilbiss atomizer driven by compressed air pressure of 2 to 4 psi (140 to 280 kiloPascals) to obtain thorough coverage of each plant. Control plants were sprayed in the same manner with the aqueous mixture. In this test an application rate of 1 ppm results in the application of approximately 1 g/Ha.
as §3

[8] = test system: Cocklebur (Xanthium strumarium); assay: Postemergence herbicidal activity; assay type: in vivo; conditions: visual score after 2 weeks, 0 = no injury, 100 = complete kill
Procedure: as §1, §5, §3

[9] = test system: Giant Foxtail (Setaria faberi); assay: Postemergence herbicidal activity; assay type: in vivo; conditions: visual score after 2 weeks, 0 = no injury, 100 = complete kill
Procedure: as §1, §5, §3

[10] = test system: Lambsquarter (Chenopodium album); assay: Postemergence herbicidal activity; assay type: in vivo; conditions: visual score after 2 weeks, 0 = no injury, 100 = complete kill
Procedure: as §1, §5, §3

Structure (SMILES) | Post-emergent (% injury) AMARE [1] [%] | Post-emergent (% injury) TRZAS [2] [%] | Pre-emergent (% injury) SETFA [3] [%] | Pre-emergent (% injury) CHEAL [4] [%] | Pre-emergent (% injury) IPOHE [5] [%] | Pre-emergent (% injury) DIGSA [6] [%] | Post-emergent (% injury) ECHCG ([7]; rate 245 ppm) [%] | Post-emergent (% injury) XANST ([8]; rate 245 ppm) [%] | Post-emergent (% injury) SETFA ([9]; rate 245 ppm) [%] | Post-emergent (% injury) CHEAL ([10]; rate 123 (unit not given)) [%] | Post-emergent (% injury) CHEAL ([10]; rate 245 ppm) [%] | Post-emergent (% injury) ECHCG ([7]; rate 250 ppm) [%] | Post-emergent (% injury) XANST ([8]; rate 250 ppm) [%] | Post-emergent (% injury) SETFA ([9]; rate 250 ppm) [%] | Post-emergent (% injury) CHEAL ([10]; rate 250 ppm) [%]
COC(=O)c1nc(C(C)(F)F)cc(N)c1Cl [Compound 1, Methyl 4-amino-3-chloro-6-(1,1-difluroethyl)pyridine-2-carboxylate] | 100 | 0 | 100 | 100 | 100 | 100 | 75 | 100 | 65 | 100 | 100 |  |  |  | 
CC(F)(F)c1cc(N)c(Cl)c(C(=O)O)n1 [Compound 2, 4-amino-3-chloro-6-(1,1-difluoroethyl)pyridine-2-carboxylic acid] |  |  | 95 | 100 | 100 | 98 |  |  |  |  |  | 80 | 100 | 85 | 100
